Measured values: ChEMBL document CHEMBL1201862, “PubChem BioAssay data set” (2004)
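48-hour exposure; five concentrations; linearly interpolated endpoints. At the GI50, growth is halved.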 Activity calls are given as the source filed them. Cut-off read from the data, not from the text of the source: active = GI50 up to about 1.1 µM and inactive = higher.

Legend:
Assay in all cases: DTP human tumour cell line panel, 48 h
Malme-3M = test system: Malme-3M
MDA-MB-435 = test system: MDA-MB-435
U-251 = test system: U-251
SNB-75 = test system: SNB-75
A498 = test system: A498
NCI-H522 = test system: NCI-H522
CCRF-CEM = test system: CCRF-CEM
RXF 393 = test system: RXF 393
SF-295 = test system: SF-295
HCT-116 = test system: HCT-116
MOLT-4 = test system: MOLT-4
MDA-MB-231 = test system: MDA-MB-231
SK-MEL-5 = test system: SK-MEL-5
NCI-H226 = test system: NCI-H226
KM12 = test system: KM12
DU-145 = test system: DU-145
OVCAR-8 = test system: OVCAR-8
A549 = test system: A549
ACHN = test system: ACHN
HOP-62 = test system: HOP-62

Compound	GI50 (Malme-3M)	GI50 (MDA-MB-435)	GI50 (U-251)	GI50 (SNB-75)	GI50 (A498)	GI50 (NCI-H522)	GI50 (CCRF-CEM)	GI50 (RXF 393)	GI50 (SF-295)	GI50 (HCT-116)	GI50 (MOLT-4)	GI50 (MDA-MB-231)	GI50 (SK-MEL-5)	GI50 (NCI-H226)	GI50 (KM12)	GI50 (DU-145)	GI50 (OVCAR-8)	GI50 (A549)	GI50 (ACHN)	GI50 (HOP-62)
CC1(C)OC(CCC#N)CN1C(=O)OCc1ccccc1 (configuration not stated)	49 µM (inactive)	> 100 µM (inactive)	> 100 µM (inactive)	3.4 µM (inactive)	> 100 µM (inactive)	75.2 µM (inactive)	> 100 µM (inactive)	> 100 µM (inactive)	> 100 µM (inactive)	> 100 µM (inactive)	> 100 µM (inactive)	> 100 µM (inactive)	68.4 µM (inactive)	23.6 µM (inactive)	28.9 µM (inactive)	> 100 µM (inactive)	> 100 µM (inactive)	> 100 µM (inactive)	> 100 µM (inactive)	
O=C1/C(=C/c2ccccc2)N=C2Sc3c([nH]cnc3=O)N12	> 100 µM (inactive)	60 µM (inactive)	> 100 µM (inactive)	> 100 µM (inactive)	> 100 µM (inactive)	> 100 µM (inactive)	> 100 µM (inactive)	> 100 µM (inactive)	> 100 µM (inactive)	> 100 µM (inactive)	44.3 µM (inactive)	> 100 µM (inactive)	> 100 µM (inactive)	78.2 µM (inactive)	> 100 µM (inactive)	> 100 µM (inactive)	> 100 µM (inactive)	> 100 µM (inactive)	> 100 µM (inactive)	> 100 µM (inactive)
O=C(CSCC(=O)N/N=C/c1cc(I)cc(I)c1O)N/N=C/c1cc(I)cc(I)c1O	18.1 µM (inactive)	25.4 µM (inactive)	6.61 µM (inactive)	5.65 µM (inactive)	9.04 µM (inactive)	6.38 µM (inactive)		10.6 µM (inactive)	13.6 µM (inactive)	9.29 µM (inactive)	5.19 µM (inactive)	7.18 µM (inactive)	10.6 µM (inactive)	7.91 µM (inactive)	25.8 µM (inactive)	17.7 µM (inactive)	6.34 µM (inactive)	27.4 µM (inactive)	11.9 µM (inactive)	9.27 µM (inactive)
COc1ccc(N2C(=O)C3c4[nH]c5ccccc5c4C4c5ccccc5CC4C3C2=O)cc1 (configuration not stated)	> 100 µM (inactive)	> 100 µM (inactive)	> 100 µM (inactive)	> 100 µM (inactive)	> 100 µM (inactive)	> 100 µM (inactive)	> 100 µM (inactive)	> 100 µM (inactive)	> 100 µM (inactive)	> 100 µM (inactive)	> 100 µM (inactive)	> 100 µM (inactive)		> 100 µM (inactive)	> 100 µM (inactive)	> 100 µM (inactive)	> 100 µM (inactive)	> 100 µM (inactive)	> 100 µM (inactive)	> 100 µM (inactive)
CNC(=S)N/N=C(\C)c1cc(OC)ccc1O	> 100 µM (inactive)	> 78.9 µM (inactive)	> 100 µM (inactive)	> 95.3 µM (inactive)	> 100 µM (inactive)	3.9 µM (inactive)	> 27.9 µM (inactive)	> 100 µM (inactive)	> 100 µM (inactive)	> 100 µM (inactive)	> 65.6 µM (inactive)	> 100 µM (inactive)	> 44.3 µM (inactive)		> 100 µM (inactive)	> 100 µM (inactive)	> 100 µM (inactive)	> 100 µM (inactive)	> 100 µM (inactive)	> 100 µM (inactive)
Cc1csc2c1C(=O)c1ccsc1C2=O	0.343 µM (active)	0.215 µM (active)	3.4 µM (inactive)	1.97 µM (inactive)	18.2 µM (inactive)	2.21 µM (inactive)	4.03 µM (inactive)	3.21 µM (inactive)	1.59 µM (inactive)	2.17 µM (inactive)	4.61 µM (inactive)	2.35 µM (inactive)	0.589 µM (active)	11 µM (inactive)	2.96 µM (inactive)	1.88 µM (inactive)	2.99 µM (inactive)	1.72 µM (inactive)	2.98 µM (inactive)	
NC(=O)C[S+]([O-])CC(N)C(=O)O (configuration not stated)	> 100 µM (inactive)	> 100 µM (inactive)	> 100 µM (inactive)	> 100 µM (inactive)	> 100 µM (inactive)	> 100 µM (inactive)		> 100 µM (inactive)	> 100 µM (inactive)	> 100 µM (inactive)	> 100 µM (inactive)	> 100 µM (inactive)	> 100 µM (inactive)	> 100 µM (inactive)	> 100 µM (inactive)	> 100 µM (inactive)	> 100 µM (inactive)	> 100 µM (inactive)	> 100 µM (inactive)	> 100 µM (inactive)
COc1ccc(C(=O)c2[nH]c(Nc3cc(C)ccn3)c(C(=S)Nc3ccccc3)c2N)cc1	14.6 µM (inactive)	19.4 µM (inactive)	15.3 µM (inactive)	20.5 µM (inactive)	15.9 µM (inactive)	13.8 µM (inactive)		16.9 µM (inactive)	17.9 µM (inactive)	20.7 µM (inactive)	23.4 µM (inactive)	20 µM (inactive)		17.1 µM (inactive)	13.3 µM (inactive)	36.6 µM (inactive)	17.2 µM (inactive)	23.4 µM (inactive)	30.4 µM (inactive)	24.7 µM (inactive)
COc1ccccc1-n1c(=O)n(C)c(=O)n1C(C)(C)C	> 100 µM (inactive)	> 100 µM (inactive)	> 100 µM (inactive)	> 100 µM (inactive)	> 100 µM (inactive)	29.3 µM (inactive)	> 100 µM (inactive)	> 100 µM (inactive)		> 100 µM (inactive)	> 100 µM (inactive)	> 100 µM (inactive)	> 100 µM (inactive)	> 100 µM (inactive)	> 100 µM (inactive)	> 100 µM (inactive)	> 100 µM (inactive)	> 100 µM (inactive)		
CCOC(=O)c1c(-c2ccc(OC)cc2)c(C#N)c(=S)n(C2OC(CO)C(O)C(O)C2O)c1C (configuration not stated)	> 100 µM (inactive)	> 100 µM (inactive)	> 100 µM (inactive)	> 100 µM (inactive)	> 100 µM (inactive)	> 100 µM (inactive)	> 100 µM (inactive)	> 100 µM (inactive)	> 100 µM (inactive)	> 100 µM (inactive)	> 100 µM (inactive)	> 100 µM (inactive)	> 100 µM (inactive)	> 100 µM (inactive)	> 100 µM (inactive)	> 100 µM (inactive)	> 100 µM (inactive)	> 100 µM (inactive)		> 100 µM (inactive)
Oc1ccc(/C=N/CC2CCCN3CCCCC23)cc1 (configuration not stated)	24.7 µM (inactive)	14.1 µM (inactive)	17.6 µM (inactive)	51.8 µM (inactive)	26.5 µM (inactive)	17.9 µM (inactive)		20 µM (inactive)	26.1 µM (inactive)	16.7 µM (inactive)	27.4 µM (inactive)	28.8 µM (inactive)	20.5 µM (inactive)	21.6 µM (inactive)	16.4 µM (inactive)	16 µM (inactive)	44 µM (inactive)	27.3 µM (inactive)	15.5 µM (inactive)	26.7 µM (inactive)
CC(N)C(C)Cc1ccccc1 (configuration not stated)	> 100 µM (inactive)	> 100 µM (inactive)	> 100 µM (inactive)	> 100 µM (inactive)	> 100 µM (inactive)	> 100 µM (inactive)		> 100 µM (inactive)	> 100 µM (inactive)	> 100 µM (inactive)	> 100 µM (inactive)	> 100 µM (inactive)	> 100 µM (inactive)	> 100 µM (inactive)	> 100 µM (inactive)	> 100 µM (inactive)	> 100 µM (inactive)	> 100 µM (inactive)	> 100 µM (inactive)	> 100 µM (inactive)
CCCCc1ccc(Nc2nc(Cl)c3ncn(C4CC(Oc5ccc(C)cc5)C(COc5ccc(C)cc5)O4)c3n2)cc1 (configuration not stated)	> 100 µM (inactive)	> 100 µM (inactive)		> 100 µM (inactive)	> 100 µM (inactive)	> 100 µM (inactive)	> 100 µM (inactive)	> 100 µM (inactive)	> 100 µM (inactive)	> 100 µM (inactive)	> 100 µM (inactive)	> 100 µM (inactive)	> 100 µM (inactive)	> 100 µM (inactive)	> 100 µM (inactive)	> 100 µM (inactive)	> 100 µM (inactive)	> 100 µM (inactive)	> 100 µM (inactive)	75.2 µM (inactive)
Cc1cc(NCc2ccccc2)c2ccccc2[n+]1CCCCCCCCCC[n+]1c(C)cc(NCc2ccccc2)c2ccccc21.[O-][Cl+3]([O-])([O-])[O-].[O-][Cl+3]([O-])([O-])[O-]	4.06 µM (inactive)	0.39 µM (active)	0.0964 µM (active)	0.205 µM (active)	0.883 µM (active)	19.5 µM (inactive)	0.377 µM (active)	1.96 µM (inactive)	0.391 µM (active)	0.324 µM (active)	0.423 µM (active)	0.472 µM (active)	0.171 µM (active)		0.191 µM (active)	0.692 µM (active)	0.431 µM (active)	0.394 µM (active)	0.565 µM (active)	
CN(C)c1cccc2c(S(=O)(=O)NCCN)cccc12 [DANSYL ETHYLENEDIAMINE]	> 100 µM (inactive)	> 100 µM (inactive)	> 100 µM (inactive)	4.74 µM (inactive)	23 µM (inactive)	> 100 µM (inactive)	> 100 µM (inactive)	41.1 µM (inactive)	> 100 µM (inactive)	35.2 µM (inactive)	> 100 µM (inactive)	> 100 µM (inactive)	46.2 µM (inactive)	> 100 µM (inactive)	> 100 µM (inactive)	> 100 µM (inactive)		> 100 µM (inactive)	> 100 µM (inactive)	> 100 µM (inactive)
